# Reference: PMC10786919, “Design-rules for stapled peptides with in vivo activity and their application to Mdm2/X antagonists” (Nature Communications, 2024)
# Read-outs that look alike come from different tables or passages of the source. Positions of bridges follow the written chain, without caps; N, C: chain ends. Non-standard residues stand in square brackets, D forms with d. Residues, ends and D or L forms follow the SMILES beside them. Lys(N3) = [N-]=[N+]=NCCCC[C@H](N)C(=O)O; R8 = C=CCCCCCC[C@@](C)(N)C(=O)O; Cba = N[C@@H](CC1CCC1)C(=O)O; S5 = C=CCCC[C@](C)(N)C(=O)O; βAla = NCCC(=O)O
# Columns and labels:
# [1] = Lactate dehydrogenase (LDH) release assay; assay type: cell-based
# Summary of the method: (§1)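 HCT116 cells stably carrying a p53-responsive β-lactamase reporter were seeded at 8000 cells per well with a final DMSO level of 0.5%. Membrane integrity was assessed by lactate dehydrogenase release using a homogeneous fluorometric kit. Values are geometric means of at least three biological replicates.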
# [2] = tested on: HCT116 cells; test: Lactate dehydrogenase (LDH) release assay; assay type: cell-based
# Summary of the method: as §1
# [3] = tested on: Ca Ski cell line; details: 72 h
# Summary of the method: (§2)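 Compound dilution series (10 points, 3-fold, 10 mM top stock in DMSO) tested on overnight-plated Ca Ski cells in RPMI1640/10% FBS and on blasticidin-selected p53RE-bla HCT-116 cells in McCoy's 5A; read-out was CellTiter-Glo 2.0 luminescence after room-temperature equilibration.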
# [4] = tested on: CellSensor p53RE-bla HCT-116 Cell Line; details: 72 h
# Summary of the method: as §2
# [5] = in vitro; details: Nanoclick permeability assay EC50
# Summary of the method: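 Azido-peptide permeability was read as loss of NanoBRET signal (donor 450 nm, acceptor 610 nm) after adding NanoBret618-azide at 10 μM final.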
# [6] = physchem
# [7] = Experimental LogD (partition coefficient); details: not stated, Partition Coeff LogD
# [8] = Solubility assay (kinetic solubility, PBS pH 7); assay type: physicochemical; details: pH 7, PBS; for solubility kinetic: pH 7, aqueous buffer, kinetic from dmso stock, read-out: Solubility
# Summary of the method: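 Next, measure peak areas of sample and standard. Finally, multiply their ratio by the standard concentration to obtain solubility (µM).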
# [9] = physchem; remark: listed apart in the source
SMILES,EC50 ([1]; LDH: Cytotoxicity assay: EC50) [µM],LDH: Cytotoxicity assay: % Effect [2] [%],EC50 [3] [µM],EC50 [4] [µM],cell entry EC50 [5] [µM],EPSA [6] [A^2],logD [7],solubility kinetic [8] [µM],EC50 ([1]; LDH: Cytotoxicity assay EC50) [µM],Solubility [8],EPSA [9] [A^2]
CC(=O)N[C@@H](CCCCN=[N+]=[N-])C(=O)NCCC(=O)N[C@@H](CO)C(=O)N[C@H](C(=O)N[C@@H](Cc1ccccc1)C(=O)N[C@]1(C)CCCCCCC=CCCC[C@@](C)(C(=O)N[C@@H](CO)C(=O)N[C@@H](C)C(=O)N[C@@H](C)C(N)=O)NC(=O)[C@H](CC2CCC2)NC(=O)[C@H](CCC(N)=O)NC(=O)[C@H](CO)NC(=O)[C@H](Cc2c[nH]c3ccccc23)NC(=O)[C@H](Cc2ccc(O)cc2)NC(=O)[C@H](CO)NC1=O)[C@@H](C)O [MP-5493] (Ac-[Lys(N3)][βAla]STF[R8]SYWSQ[Cba][S5]SAA-NH2; staple 6-13),> 50.6,6.777,> 49.8,3.61,0.0294,204,2.69,–,–,–,–
CC(=O)N[C@@H](CCCCN=[N+]=[N-])C(=O)NCCC(=O)N[C@@H](Cc1ccc(O)cc1)C(=O)N[C@H](C(=O)N[C@@H](Cc1ccccc1)C(=O)N[C@]1(C)CCCCCCC=CCCC[C@@](C)(C(=O)N[C@@H](CO)C(=O)N[C@@H](C)C(=O)N[C@@H](C)C(N)=O)NC(=O)[C@H](CC2CCC2)NC(=O)[C@H](CCC(N)=O)NC(=O)[C@H](Cc2ccc(O)cc2)NC(=O)[C@H](Cc2c[nH]c3ccccc23)NC(=O)[C@H](Cc2ccc(O)cc2)NC(=O)[C@H](Cc2ccc(O)cc2)NC1=O)[C@@H](C)O [MP-694] (Ac-[Lys(N3)][βAla]YTF[R8]YYWYQ[Cba][S5]SAA-NH2; staple 6-13),> 50.6,–,> 49.8,3.03,0.453,227,3.22,9,–,–,–
CC(=O)N[C@@H](CCCCN=[N+]=[N-])C(=O)NCCC(=O)N[C@@H](Cc1ccccc1)C(=O)N[C@H](C(=O)N[C@@H](Cc1ccccc1)C(=O)N[C@]1(C)CCCCCCC=CCCC[C@@](C)(C(=O)N[C@@H](CO)C(=O)N[C@@H](C)C(=O)N[C@@H](C)C(N)=O)NC(=O)[C@H](CC2CCC2)NC(=O)[C@H](CCC(N)=O)NC(=O)[C@H](Cc2ccccc2)NC(=O)[C@H](Cc2c[nH]c3ccccc23)NC(=O)[C@H](Cc2ccc(O)cc2)NC(=O)[C@H](Cc2ccccc2)NC1=O)[C@@H](C)O [MP-492] (Ac-[Lys(N3)][βAla]FTF[R8]FYWFQ[Cba][S5]SAA-NH2; staple 6-13),> 50.6,–,> 49.8,2.53,0.16,211,4.21,3,–,–,–
CC(=O)N[C@@H](CCCCN=[N+]=[N-])C(=O)NCCC(=O)N[C@@H](CC(C)C)C(=O)N[C@H](C(=O)N[C@@H](Cc1ccccc1)C(=O)N[C@]1(C)CCCCCCC=CCCC[C@@](C)(C(=O)N[C@@H](CO)C(=O)N[C@@H](C)C(=O)N[C@@H](C)C(N)=O)NC(=O)[C@H](CC2CCC2)NC(=O)[C@H](CCC(N)=O)NC(=O)[C@H](C)NC(=O)[C@H](Cc2c[nH]c3ccccc23)NC(=O)[C@H](Cc2ccc(O)cc2)NC(=O)[C@H](CCCNC(=N)N)NC1=O)[C@@H](C)O [MP-554] (Ac-[Lys(N3)][βAla]LTF[R8]RYWAQ[Cba][S5]SAA-NH2; staple 6-13),–,–,11.4,5.79,0.586,–,3.28,–,30.4,Poorly Behaved,215
CC(=O)N[C@@H](CCCCN=[N+]=[N-])C(=O)NCCC(=O)N[C@@H](CC(C)C)C(=O)N[C@@H](CCCNC(=N)N)C(=O)N[C@@H](Cc1ccccc1)C(=O)N[C@]1(C)CCCCCCC=CCCC[C@@](C)(C(=O)N[C@@H](CO)C(=O)N[C@@H](C)C(=O)N[C@@H](C)C(N)=O)NC(=O)[C@H](CC2CCC2)NC(=O)[C@H](CCC(N)=O)NC(=O)[C@H](C)NC(=O)[C@H](Cc2c[nH]c3ccccc23)NC(=O)[C@H](Cc2ccc(O)cc2)NC(=O)[C@H](CCC(=O)O)NC1=O [MP-553] (Ac-[Lys(N3)][βAla]LRF[R8]EYWAQ[Cba][S5]SAA-NH2; staple 6-13),–,–,> 49.8,6.78,0.174,–,2.86,–,> 50,Poorly Behaved,232
CC(=O)N[C@@H](CCCCN=[N+]=[N-])C(=O)NCCC(=O)N[C@@H](CCCNC(=N)N)C(=O)N[C@H](C(=O)N[C@@H](Cc1ccccc1)C(=O)N[C@]1(C)CCCCCCC=CCCC[C@@](C)(C(=O)N[C@@H](CO)C(=O)N[C@@H](C)C(=O)N[C@@H](C)C(N)=O)NC(=O)[C@H](CC2CCC2)NC(=O)[C@H](CCC(N)=O)NC(=O)[C@H](C)NC(=O)[C@H](Cc2c[nH]c3ccccc23)NC(=O)[C@H](Cc2ccc(O)cc2)NC(=O)[C@H](CCC(=O)O)NC1=O)[C@@H](C)O [MP-552] (Ac-[Lys(N3)][βAla]RTF[R8]EYWAQ[Cba][S5]SAA-NH2; staple 6-13),–,–,39.9,4.32,0.0896,–,2.81,2,> 50,–,230
"CC(=O)N[C@@H](CCCCN=[N+]=[N-])C(=O)NCCC(=O)N[C@@H](Cc1c[nH]cn1)C(=O)N[C@H](C(=O)N[C@@H](Cc1ccccc1)C(=O)N[C@]1(C)CCCCCCC=CCCC[C@@](C)(C(=O)N[C@@H](CO)C(=O)N[C@@H](C)C(=O)N[C@@H](C)C(N)=O)NC(=O)[C@H](CC2CCC2)NC(=O)[C@H](CCC(N)=O)NC(=O)[C@H](C)NC(=O)[C@H](Cc2c[nH]c3ccccc23)NC(=O)[C@H](Cc2ccc(O)cc2)NC(=O)[C@H](CCC(=O)O)NC1=O)[C@@H](C)O [MP-173, AZIDE-ATSP-7041 (L1H)] (Ac-[Lys(N3)][βAla]HTF[R8]EYWAQ[Cba][S5]SAA-NH2; staple 6-13)",–,–,35.3,5.14,0.0406,–,2.73,5,> 50,–,232
CC(=O)N[C@@H](CCCCN=[N+]=[N-])C(=O)NCCC(=O)N[C@@H](CC(C)C)C(=O)N[C@H](C(=O)N[C@@H](Cc1ccccc1)C(=O)N[C@]1(C)CCCCCCC=CCCC[C@@](C)(C(=O)N[C@@H](Cc2c[nH]c3ccccc23)C(=O)N[C@@H](C)C(=O)N[C@@H](C)C(N)=O)NC(=O)[C@H](CC2CCC2)NC(=O)[C@H](CCC(N)=O)NC(=O)[C@H](C)NC(=O)[C@H](Cc2c[nH]c3ccccc23)NC(=O)[C@H](Cc2ccc(O)cc2)NC(=O)[C@H](CCC(=O)O)NC1=O)[C@@H](C)O [MP-188] (Ac-[Lys(N3)][βAla]LTF[R8]EYWAQ[Cba][S5]WAA-NH2; staple 6-13),–,–,30.4,4.79,0.374,–,3.33,50,> 50,–,249
CC(=O)N[C@@H](CCCCN=[N+]=[N-])C(=O)NCCC(=O)N[C@@H](CC(C)C)C(=O)N[C@H](C(=O)N[C@@H](Cc1ccccc1)C(=O)N[C@]1(C)CCCCCCC=CCCC[C@@](C)(C(=O)N[C@@H](CO)C(=O)N[C@@H](C)C(=O)N[C@@H](C)C(N)=O)NC(=O)[C@H](CC2CCC2)NC(=O)[C@H](Cc2c[nH]c3ccccc23)NC(=O)[C@H](C)NC(=O)[C@H](Cc2c[nH]c3ccccc23)NC(=O)[C@H](Cc2ccc(O)cc2)NC(=O)[C@H](CCC(=O)O)NC1=O)[C@@H](C)O [MP-187] (Ac-[Lys(N3)][βAla]LTF[R8]EYWAW[Cba][S5]SAA-NH2; staple 6-13),–,–,> 49.8,7.27,0.247,–,3.14,3.5,> 50,–,242
CC(=O)N[C@@H](CCCCN=[N+]=[N-])C(=O)NCCC(=O)N[C@H](C(=O)N[C@H](C(=O)N[C@@H](Cc1ccccc1)C(=O)N[C@]1(C)CCCCCCC=CCCC[C@@](C)(C(=O)N[C@@H](CO)C(=O)N[C@@H](C)C(=O)N[C@@H](C)C(N)=O)NC(=O)[C@H](CC2CCC2)NC(=O)[C@H](CCC(N)=O)NC(=O)[C@H](C(C)C)NC(=O)[C@H](Cc2c[nH]c3ccccc23)NC(=O)[C@H](Cc2ccc(O)cc2)NC(=O)[C@H](C(C)C)NC1=O)[C@@H](C)O)C(C)C [MP-490] (Ac-[Lys(N3)][βAla]VTF[R8]VYWVQ[Cba][S5]SAA-NH2; staple 6-13),> 50.6,–,> 49.8,0.819,1.37,194,4,3,–,–,–
CC(=O)N[C@@H](CCCCN=[N+]=[N-])C(=O)NCCC(=O)N[C@@H](CC(C)C)C(=O)N[C@H](C(=O)N[C@@H](Cc1ccccc1)C(=O)N[C@]1(C)CCCCCCC=CCCC[C@@](C)(C(=O)N[C@@H](CCC(=O)O)C(=O)N[C@@H](C)C(=O)N[C@@H](C)C(N)=O)NC(=O)[C@H](CC2CCC2)NC(=O)[C@H](CCC(N)=O)NC(=O)[C@H](C)NC(=O)[C@H](Cc2c[nH]c3ccccc23)NC(=O)[C@H](Cc2ccc(O)cc2)NC(=O)[C@H](CCC(=O)O)NC1=O)[C@@H](C)O [MP-182],–,–,> 49.8,1.31,0.223,–,2.5,163,> 50,–,251
